# Measurements as given in patent publication US10023922B2, “Reporter of genomic methylation and uses thereof” (Whitehead Institute for Biomedical Research, priority 2015, dated 2018).
# Test system: Gapdh and Dazl reporter constructs
# Experiment: In vitro methylation of reporter plasmids, checked by bisulfite conversion, PCR amplification and sequencing
# Assay type: biochemical
# Settings: FIGS. 2A and 2B
# Description: Conversely, we were interested to assess whether a methylated and silent donor Snrpn promoter can be reactivated by means of demethylation acquired in vivo. For this we used the CpG methyltransferase M.SssI to in vitro methylate both Gapdh and Dazl reporter constructs.
# Bisulfite conversion of DNA was established using the EpiTect Bisulfite Kit (Qiagen) following the manufacturer's instructions. The resulting modified DNA was amplified by first round of nested PCR, following a second round using loci specific PCR primers (see complete list of primers below). The first round of nested PCR was done as follows: 94° C. for 4 min; 55° C. for 2 min; 72° C. for 2 min; Repeat steps 1-3 1×; 94° C. for 1 min; 55° C. for 2 min; 72° C. for 2 min; Repeat steps 5-7 35×; 72° C. for 5 min; Hold 12° C. The second round of PCR was as followed: 95° C. for 4 min; 94° C. for 1 min; 55° C. for 2 min; 72° C. for 2 min; Repeat steps 2-4 35×; 72° C. for 5 min; Hold 12° C. The resulting amplified products were gel-purified, subcloned into A pCR2.1-TOPO-TA cloning vector (Life Technologies), and sequenced.
substance,measurement,value
M.SssI: CpG methyltransferase used to in vitro methylate reporter constructs,methylation of CGI and Snrpn promoter regions of the treated plasmids,complete hypermethylation
